The values below come from patent publication US20220288143A1, “PHARMACEUTICAL COMPOSITION FOR TREATING CANCER, COMPRISING VACCINIA VIRUS AND GRANULOPOIESIS INHIBITOR AS ACTIVE INGREDIENTS” (priority 2019, published 2022).

Test [1] deals with neutrophils. The test is described as follows: Neutrophil count (CBC), Renca-transplanted mice, lenalidomide or hydroxyurea (Exp. Ex. 17). In kind it is in vivo, mouse. The note with it: day 5, 30 mg/kg i.p. daily, compared with group administered saline. Here is the method:
Balb/c mice (female, 8-week-old) purchased from Orient Bio (Busan, Korea) were subjected to a one-week acclimatization period, and then allografted with Renca cancer cell line (Korea Cell Line Bank) at 5×10^6 cells. After another one-week acclimatization period, the mice were divided into 3 groups (n=3) and administered intraperitoneally with saline, hydroxyurea (30 mg/kg), and lenalidomide (30 mg/kg), respectively, daily from 1 day before the administration of the oncolytic virus to day 4 after the administration.
As a result of performing a complete blood count (CBC) by sacrificing the mice in each group on day 5 after administering the oncolytic virus, it was confirmed that the neutrophil count of the mice in the group administered with lenalidomide was reduced as compared with the group administered with saline, except for one outlier mouse.

Test [2] relates to neutrophils. In kind it is in vivo, mouse. Conditions: Renca mice; day 8; compared with negative control group (saline); hydroxyurea 30 mg/kg i.p.

Turning to `NC(=O)NO` [hydroxyurea], the neutrophil count entry in test [1] is listed as “significantly lower”. In test [2], the “absolute neutrophil count (ANC)” value is listed as “decreased”.

With `Nc1cccc2c1CN(C1CCC(=O)NC1=O)C2=O` (stereo not drawn) [lenalidomide], the neutrophil count result in test [1] is given as “reduced”.
